ChEMBL document CHEMBL1201862, “PubChem BioAssay data set” (2004)
The source made the active and inactive calls.

Assays:
[1] = nonselective inhibitors of cellular cAMP signaling, dose response, counter-screen for MC4R biased antagonist project, cell-based, TR-FRET cAMP detection (AID 602305); assay type: functional;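 also: U2OS cells stimulated with forskolin near its EC80 as the cAMP inducer; potency is for inhibition of forskolin-stimulated cAMP signaling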
Melanocortin receptor 4 = Melanocortin receptor 4 (Homo sapiens, UniProt P32245); test: MC4R antagonist potency on cAMP, dose response, cell-based, TR-FRET, biased antagonists (AID 602298); assay type: functional;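 also: antagonist potency against agonist-stimulated cAMP production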
[2] = biological target: Neuropeptides B/W receptor type 1 (Homo sapiens, UniProt P48145); test: GPR7 antagonist potency, late-stage follow-up, cell-based, fluorescence, dose response, set 5 (AID 588566); assay type: functional
[3] = biological target: Melanin-concentrating hormone receptor 1 (Homo sapiens, UniProt Q99705); test: Late-stage fluorescence-based counterscreen for antagonists of the G-protein coupled receptor 7 (GPR7): cell-based dose response assay to identify antagonists of the melanin-concentrating hormone receptor 1 (MCHR1) Set 5.; assay type: functional
[4] = Late-stage results from the probe development effort to identify antagonists of the G-protein coupled receptor 7 (GPR7): luminescence-based cell-based dose response counterscreen assay to determine cytotoxicity of antagonist compounds Set 3.; assay type: functional
[5] = cytotoxicity toward NIH3T3 fibroblasts, dose response, counter-screen, cell-based, ATP luminescence, mouse fibroblasts (AID 2010); assay type: functional;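 also: cells exposed to compound for about 90 hours before reading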
[6] = biological target: T1, High affinity choline transporter 1 (Homo sapiens, UniProt Q9GZV3); test: CHT activators, dose response, cell-based, 10-point CRC, membrane potential dye (AID 602376); assay type: functional
T1 sequence (Q9GZV3 whole entry): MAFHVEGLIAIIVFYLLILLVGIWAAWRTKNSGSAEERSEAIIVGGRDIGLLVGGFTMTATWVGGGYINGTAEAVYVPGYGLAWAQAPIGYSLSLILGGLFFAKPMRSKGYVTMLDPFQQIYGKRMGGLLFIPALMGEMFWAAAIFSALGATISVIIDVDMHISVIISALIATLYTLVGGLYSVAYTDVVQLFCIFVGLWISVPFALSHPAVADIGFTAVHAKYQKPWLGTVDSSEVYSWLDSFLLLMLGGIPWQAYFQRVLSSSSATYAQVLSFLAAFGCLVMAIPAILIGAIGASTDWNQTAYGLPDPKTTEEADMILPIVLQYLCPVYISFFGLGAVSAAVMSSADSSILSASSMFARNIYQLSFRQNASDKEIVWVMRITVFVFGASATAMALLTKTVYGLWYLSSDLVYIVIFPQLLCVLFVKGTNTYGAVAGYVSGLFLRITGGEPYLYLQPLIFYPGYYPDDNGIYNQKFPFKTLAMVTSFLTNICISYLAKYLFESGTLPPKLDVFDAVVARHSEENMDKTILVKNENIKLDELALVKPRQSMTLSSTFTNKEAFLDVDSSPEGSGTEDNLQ

[7] = inhibitors of intracellular T. cruzi replication, confirmation, NIH3T3 host cells, beta-gal luminescence (AID 2044); assay type: functional, cell-based;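 also: intracellular parasites grown in NIH/3T3 mouse fibroblasts as host cells; luminescent beta-galactosidase reporter signal from transgenic T. cruzi replicating inside host cells; inhibitors lower the luminescence signal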
[8] = microbe, parasite or virus in culture; assay type: functional; conditions: Mycobacterium tuberculosis
[9] = biological target: MAP kinase-activated protein kinase 3 (Homo sapiens, UniProt Q16644); assay type: functional;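 also: value comes from a kinome-wide profiling panel in which MAPKAPK3 is one of the panel members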
[10] = biological target: Protein kinase C gamma type (Homo sapiens, UniProt P05129); assay type: functional
[11] = biological target: Protein kinase C zeta type (Homo sapiens, UniProt Q05513); assay type: functional;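 also: measured as one member of a broad kinase profiling panel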
[12] = biological target: G protein-coupled receptor kinase 5 (Homo sapiens, UniProt P34947); test: Navigating the Kinome. Panel member name: GPRK5; assay type: functional
Sequence of G protein-coupled receptor kinase 5 (P34947 whole entry): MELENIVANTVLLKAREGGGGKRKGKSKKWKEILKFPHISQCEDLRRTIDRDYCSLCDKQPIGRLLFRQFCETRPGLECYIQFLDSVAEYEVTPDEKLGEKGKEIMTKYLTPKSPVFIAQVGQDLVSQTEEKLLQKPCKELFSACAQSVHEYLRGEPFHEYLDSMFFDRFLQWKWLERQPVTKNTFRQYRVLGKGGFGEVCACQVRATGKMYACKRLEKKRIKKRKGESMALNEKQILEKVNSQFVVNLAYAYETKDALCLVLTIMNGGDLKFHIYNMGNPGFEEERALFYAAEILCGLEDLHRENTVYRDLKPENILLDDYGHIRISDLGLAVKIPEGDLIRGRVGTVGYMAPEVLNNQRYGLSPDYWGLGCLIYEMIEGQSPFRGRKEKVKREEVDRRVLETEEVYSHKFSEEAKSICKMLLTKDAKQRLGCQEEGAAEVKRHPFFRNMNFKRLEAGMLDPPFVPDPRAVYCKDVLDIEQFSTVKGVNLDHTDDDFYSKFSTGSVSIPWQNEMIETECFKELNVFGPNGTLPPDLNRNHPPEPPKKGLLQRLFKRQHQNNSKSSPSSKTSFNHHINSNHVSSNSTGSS

Sequence of Melanin-concentrating hormone receptor 1 (Q99705 whole entry): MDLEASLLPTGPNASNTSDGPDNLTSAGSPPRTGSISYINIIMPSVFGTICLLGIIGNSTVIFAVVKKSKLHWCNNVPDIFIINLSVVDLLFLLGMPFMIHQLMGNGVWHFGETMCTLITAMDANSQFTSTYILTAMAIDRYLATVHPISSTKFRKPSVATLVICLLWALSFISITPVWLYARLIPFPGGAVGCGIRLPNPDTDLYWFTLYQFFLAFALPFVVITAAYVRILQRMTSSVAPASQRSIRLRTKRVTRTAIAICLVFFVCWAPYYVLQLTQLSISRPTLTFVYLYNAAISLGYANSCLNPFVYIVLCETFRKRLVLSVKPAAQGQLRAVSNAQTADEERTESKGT
Sequence of Melanocortin receptor 4 (P32245 whole entry): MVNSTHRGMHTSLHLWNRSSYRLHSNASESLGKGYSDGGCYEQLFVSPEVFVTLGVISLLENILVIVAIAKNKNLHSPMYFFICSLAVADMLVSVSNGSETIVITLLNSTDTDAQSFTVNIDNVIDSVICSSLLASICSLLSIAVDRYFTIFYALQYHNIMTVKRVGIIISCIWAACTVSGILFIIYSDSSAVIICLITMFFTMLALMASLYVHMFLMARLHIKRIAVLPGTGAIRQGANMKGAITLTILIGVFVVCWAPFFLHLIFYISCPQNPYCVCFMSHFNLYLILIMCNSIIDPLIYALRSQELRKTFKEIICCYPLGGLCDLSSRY
Sequence of Neuropeptides B/W receptor type 1 (P48145 whole entry): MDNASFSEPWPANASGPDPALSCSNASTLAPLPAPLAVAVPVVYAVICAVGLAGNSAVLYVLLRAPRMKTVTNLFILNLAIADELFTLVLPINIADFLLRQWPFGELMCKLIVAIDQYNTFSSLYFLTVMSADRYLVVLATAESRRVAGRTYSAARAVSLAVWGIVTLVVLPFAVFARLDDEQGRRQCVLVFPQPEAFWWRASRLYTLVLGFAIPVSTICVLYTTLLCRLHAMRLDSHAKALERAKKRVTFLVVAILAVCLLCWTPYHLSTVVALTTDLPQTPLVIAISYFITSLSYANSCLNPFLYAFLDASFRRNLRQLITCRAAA
Sequence of Protein kinase C zeta type (Q05513 whole entry): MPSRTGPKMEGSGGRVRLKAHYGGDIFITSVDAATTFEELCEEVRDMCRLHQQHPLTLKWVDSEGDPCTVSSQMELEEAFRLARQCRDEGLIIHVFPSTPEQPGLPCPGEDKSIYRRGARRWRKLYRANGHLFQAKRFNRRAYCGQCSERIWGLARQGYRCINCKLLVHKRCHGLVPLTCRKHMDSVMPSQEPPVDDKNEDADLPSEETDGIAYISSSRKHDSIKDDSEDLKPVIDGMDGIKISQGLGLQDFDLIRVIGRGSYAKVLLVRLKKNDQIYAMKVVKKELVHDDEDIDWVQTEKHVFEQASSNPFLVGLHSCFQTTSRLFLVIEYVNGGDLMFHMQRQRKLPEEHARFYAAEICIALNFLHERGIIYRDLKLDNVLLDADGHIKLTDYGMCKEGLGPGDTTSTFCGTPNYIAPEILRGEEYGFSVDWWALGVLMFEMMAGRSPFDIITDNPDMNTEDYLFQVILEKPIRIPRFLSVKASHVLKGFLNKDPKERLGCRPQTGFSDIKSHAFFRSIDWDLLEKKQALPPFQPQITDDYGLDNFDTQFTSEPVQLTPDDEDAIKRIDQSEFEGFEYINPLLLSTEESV
Sequence of MAP kinase-activated protein kinase 3 (Q16644 whole entry): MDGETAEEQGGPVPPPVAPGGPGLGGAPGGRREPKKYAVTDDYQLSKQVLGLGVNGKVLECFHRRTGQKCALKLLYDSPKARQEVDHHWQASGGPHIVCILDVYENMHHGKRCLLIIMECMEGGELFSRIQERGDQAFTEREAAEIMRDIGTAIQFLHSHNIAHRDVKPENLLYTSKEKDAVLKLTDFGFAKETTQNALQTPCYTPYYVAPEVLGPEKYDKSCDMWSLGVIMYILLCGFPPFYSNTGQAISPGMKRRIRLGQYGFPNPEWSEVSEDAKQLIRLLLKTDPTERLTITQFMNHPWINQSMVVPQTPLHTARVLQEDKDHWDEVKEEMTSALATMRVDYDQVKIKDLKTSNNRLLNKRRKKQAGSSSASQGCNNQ

**Q.** Which results are given for CC(=O)Oc1ccc2nc(-c3ccco3)oc(=O)c2c1?
**A.** IC50 [1]: > 64.6 µM (inactive); IC50 (Melanocortin receptor 4): > 64.6 µM (inactive)

**Q.** With CS(=O)(=O)c1ccc(Oc2c(Cl)cnn(Cc3cccc4ccccc34)c2=O)cc1 as the compound, how does the IC50 [2] read?
**A.** 1.13 µM (active)

**Q.** And the IC50 [3]?
**A.** 2.46 µM (active)

**Q.** With COc1ccc(Oc2c(Cl)cnn(C3c4ccccc4-c4ccccc43)c2=O)cc1 as the compound, how does the CC50 [4] read?
**A.** > 20 µM (inactive)

**Q.** With Cc1ccc(-n2c(C)cc(/C=N/NC(N)=S)c2C)cc1 as the compound, how does the EC50 [5] read?
**A.** > 60 µM (inconclusive)

**Q.** And the EC50 [6]?
**A.** 9.06 µM (active)

**Q.** What about the EC50 [7] of the same compound?
**A.** 315 nM (active)

**Q.** And the CC50 [8]?
**A.** > 40 µM (active)

**Q.** Which Ki [9] does the source give for CCN(CCO)CCCOc1ccc2c(Nc3cc(CC(=O)Nc4cccc(F)c4)[nH]n3)ncnc2c1 [DEFOSBARASERTIB] here?
**A.** > 10 µM (inactive)

**Q.** And the Ki [10]?
**A.** > 7.94 µM (inactive)

**Q.** And the Ki [11]?
**A.** > 7.94 µM (inactive)

**Q.** And the Ki [12]?
**A.** > 3.98 µM (inactive)
